According to patent publication US20260091082A1, “CYCLIC PEPTIDE DERIVATIVE COMPOSITION FOR TREATING OR PREVENTING EYE DISEASE” (DKS Co. Ltd., priority 2022, published 2026):
Several values for one entry are separate records, joined by “and”; a condition that tells them apart may be missing. Equal entries are not always repeated.

System: anterior chamber aqueous humor pressure load rat model
Experiment: Retinal thickness (IPL, INL, ONL) in retinal damage model induced by anterior chamber aqueous humor pressure load
Type: in vivo, Rat; Slc: SD
Experimental: • Name: Compound 9 • Source: Synthesized in the above Examples • Used amount: 0.4 mL (50 mg/mL solution) • Storage conditions: Freezing, light shielding
Method for preparing test substance (1 mg/mL): A high concentration solution prepared at 50 mg/mL was diluted 50 times with a medium to prepare a 1 mg/mL administration solution.
• Name: MK-801 • Distributor: SIGMA-ALDRICH • Use amount: 0.0501 g • Storage condition: refrigerated (2° C. to 8° C.)
Method for preparing positive control substance (10 mg/mL): 0.0501 g was weighed out and made up to a total volume of 5 mL with a control substance (physiological saline).
• Species and strains: Rat; Slc: SD • Number of animals on arrival and sex: 50 males • Age in weeks at arrival: 6 weeks old • Body weight range at arrival: 147.2 to 170.0 g • Source: Japan SLC, Inc.
Grouping was performed two days before the first creation of the retinal damage model induced by an anterior chamber aqueous humor pressure load. Using the daily body weight as an index, stratified random allocation was performed using SAS (Ver. 9.3, SAS Institute Japan Ltd.) and EXSUS (Ver. 8.0, CAC Croit Corporation) so that an average value of the body weights of each group was approximately uniform.
• Administration route: Eyedrop administration, intravenous administration • Administration method (eyedrop): Eyedrop administration was performed on a treated eye (right eye) of a rat using a micropipette 4 times a day (at intervals of 1.5 hours or more). • Administration method (intravenous): The amount of administration solution, calculated from the body weight on the day of administration, was administered from the tail vein using a syringe and an injection needle about 30 minutes before ischemic load. • Time of administration: Administration was performed according to the following schedule.
1. 10 mg/kg xylazine hydrochloride was intramuscularly administered on the model creation day (day 0). A rat was placed in an anesthesia box and subjected to general anesthesia with isoflurane (5%, oxygen:nitrous oxide=1:3). When anesthesia was effective, the rat was taken out of the anesthesia box, an inhalation anesthetic mask was worn, and anesthesia was maintained with isoflurane (1% to 5%, oxygen nitrous oxide=1:3).
2. The body temperature was maintained at 37° C. with a warming mat, and a mydrin P ophthalmic solution was instilled in the right eye (treated eye) of the rat to dilate the pupil, then the cravit ophthalmic solution 1.5% (Santen Pharmaceutical Co., Ltd.) was instilled.
3. A bottle of an IV bag containing physiological saline was previously suspended so that a water surface was 155 cm (100 mmHg or more) higher than the eye of the rat. The IV bag was connected to a pediatric infusion set (Terumo Corporation), a 27 G injection needle thereof was inserted into and fixed to the anterior chamber while slightly dripping the liquid from a needle tip. The model was created in the light phase (6:00 to 18:00) in consideration of the diurnal variation of the intraocular pressure.
4. After the needle was inserted into the anterior chamber, pressure (100 mmHg or more) was loaded and maintained in the anterior chamber by associating the reflux system.
5. After an ischemic load for 45 minutes, the injection needle and the like were removed, the inhalation anesthetic mask was removed, and the rat was sufficiently woken up under a warming mat, and then returned to the cage.
6. For 2 days after surgery, 10 mg/kg xylazine hydrochloride was intramuscularly administered as an analgesic for the purpose of alleviating the pain after the treatment.
1. Fourteen days after model creation, general anesthesia was performed with isoflurane (5%, oxygen:nitrous oxide=1:3), euthanasia was then performed by exsanguination, a suture was placed as a marker at the 12 o'clock position of the ocular conjunctiva, and eyeball enucleation was performed.
2. […]

[1] = 900 μm from optic disk, (pre) 1 mg/mL eye drop 4 times/day on the 2 days before model creation (test group 2), 14 days after model creation, mean ± S.E., 10 animals, listed as compound 9
[2] = compound 9 (pre), 1 mg/mL eye drop, right eye, individual animals 201-210

CC[C@@]1(C)Oc2cc(ccc2O)C[C@H](NC)C(=O)N[C@@H](C(C)C)C(=O)N[C@@H]1C(=O)N[C@@H](CC(=O)O)C(=O)O [Compound 9]
Thickness of ONL (μm) (900 μm from optic disk, (pre) 1 mg/mL eye drop 4 times/day on the 2 days before model creation (test group 2), 14 days after model creation, mean ± S.E., 10 animals): 42.55±1.13 μm
Thickness of INL (μm) [1]: 30.39 ± 1.24 μm
Thickness of ONL (μm) [1]: 42.55 ± 1.13 μm
Inhibitory effect on retinal damage induced by ischemia of aqueous humor pressure load (anterior chamber aqueous humor pressure load rat model, overall conclusion): inhibitory effect on retinal damage induced by ischemia of aqueous humor pressure load was observed
Thickness of ONL, distance from optic disk 600 μm (single measurement) [2]: 41.121 μm and 44.598 μm and 41.326 μm (2×) and 41.066 μm and 41.161 μm and 38.743 μm and 41.131 μm and 38.275 μm and 37.963 μm and 43.645 μm and 43.106 μm and 45.168 μm and 47.317 μm and 40.325 μm and 41.137 μm and 43.653 μm and 45.150 μm and 48.296 μm and 46.805 μm and 44.685 μm and 46.160 μm and 42.772 μm and 45.479 μm and 40.612 μm and 40.588 μm and 46.031 μm and 41.299 μm and 42.932 μm and 48.910 μm
Thickness of ONL, distance from optic disk 900 μm (single measurement) [2]: 39.011 μm and 42.742 μm and 45.091 μm and 47.744 μm and 45.684 μm and 43.996 μm and 37.237 μm and 36.389 μm and 38.143 μm and 43.578 μm and 39.518 μm and 41.375 μm and 35.794 μm and 34.452 μm and 41.663 μm and 42.383 μm and 44.814 μm and 41.883 μm and 43.824 μm and 46.139 μm and 43.354 μm and 38.661 μm and 41.202 μm and 40.552 μm and 46.165 μm and 45.398 μm and 48.471 μm and 47.795 μm and 47.248 μm and 46.278 μm
Thickness of ONL, distance from optic disk 300 μm (single measurement) (compound 9 (pre), 1 mg/mL eye drop, right eye, individual animals 201-210, aqueous humor pressure load rat model): 50.813 μm and 51.311 μm and 53.250 μm and 34.452 μm and 30.709 μm and 34.312 μm and 40.039 μm and 41.413 μm and 11.468 μm and 39.811 μm and 37.328 μm and 39.938 μm and 33.741 μm and 35.794 μm and 35.603 μm and 42.742 μm and 44.362 μm and 44.355 μm and 36.433 μm and 40.355 μm and 37.980 μm and 39.617 μm and 40.341 μm and 39.065 μm and 40.883 μm and 41.062 μm and 40.112 μm and 37.690 μm and 36.851 μm and 39.911 μm
Thickness of INL (μm), Distance from Optic Disk 300 μm (compound 9 (pre), 1 mg/mL eye drop, right eye, 300 μm from optic disk, individual measurements per animal): 33.065 μm (2×) and 33.507 μm and 34.677 μm and 27.561 μm and 24.567 μm and 22.703 μm and 32.389 μm and 34.110 μm and 29.740 μm and 25.207 μm and 23.667 μm and 23.845 μm and 26.312 μm and 23.484 μm and 24.843 μm and 33.881 μm and 35.521 μm and 29.211 μm and 29.882 μm and 27.608 μm and 23.876 μm and 25.810 μm and 24.277 μm and 32.198 μm and 33.996 μm and 30.756 μm and 28.424 μm and 29.579 μm and 30.220 μm
Thickness of IPL (μm), Distance from Optic Disk 300 μm (compound 9 (pre), 1 mg/mL eye drop, right eye, 300 μm from optic disk, individual measurements per animal, listed as compond 9): 30.656 μm and 25.003 μm and 29.032 μm and 29.077 μm and 33.909 μm (2×) and 31.903 μm and 34.939 μm and 37.800 μm and 36.389 μm and 29.133 μm and 28.638 μm and 29.937 μm and 29.144 μm (2×) and 35.013 μm and 33.871 μm and 31.072 μm and 34.110 μm and 29.907 μm and 35.630 μm and 33.931 μm and 27.028 μm and 28.472 μm and 34.310 μm and 34.680 μm and 32.998 μm and 28.183 μm and 25.310 μm and 26.057 μm
Thickness of INL (μm), Distance from Optic Disk 300 μm, Mean (compound 9 (pre), 1 mg/mL eye drop, right eye, 300 μm from optic disk, mean per animal): 33.750 μm and 24.944 μm and 32.080 μm and 24.240 μm and 24.880 μm and 34.156 μm and 28.900 μm and 24.654 μm and 32.317 μm and 29.408 μm
Thickness of IPL (μm), Distance from Optic Disk 300 μm, Mean (compound 9 (pre), 1 mg/mL eye drop, right eye, 300 μm from optic disk, mean per animal, listed as compond 9): 28.230 μm and 31.630 μm and 36.376 μm and 29.236 μm and 31.100 μm and 32.951 μm and 33.216 μm and 29.810 μm and 33.996 μm and 26.517 μm
Thickness of INL (μm), Distance from Optic Disk 600 μm (compound 9 (pre), 1 mg/mL eye drop, right eye, 600 μm from optic disk, individual measurements per animal): 33.065 μm and 33.351 μm and 31.150 μm and 27.855 μm and 34.827 μm and 31.493 μm and 24.207 μm and 30.656 μm and 26.506 μm and 25.323 μm and 34.640 μm and 33.153 μm and 30.688 μm and 31.462 μm and 25.000 μm and 25.819 μm and 36.789 μm and 36.469 μm and 35.907 μm and 35.051 μm and 38.781 μm and 30.223 μm and 27.431 μm and 28.512 μm and 22.710 μm and 34.691 μm and 32.298 μm and 28.240 μm and 38.410 μm and 32.790 μm
Thickness of IPL (μm), Distance from Optic Disk 600 μm (compound 9 (pre), 1 mg/mL eye drop, right eye, 600 μm from optic disk, individual measurements per animal, listed as compond 9): 35.272 μm and 36.967 μm and 39.787 μm and 38.516 μm and 42.129 μm and 44.421 μm and 35.566 μm and 35.907 μm and 34.333 μm and 35.134 μm and 37.963 μm and 38.006 μm and 42.772 μm and 42.744 μm and 37.116 μm and 32.671 μm and 45.118 μm and 45.778 μm and 34.473 μm and 36.322 μm and 37.125 μm and 37.847 μm and 44.472 μm and 36.393 μm and 35.013 μm and 40.678 μm and 44.362 μm and 37.009 μm and 45.280 μm and 36.469 μm
Thickness of INL (μm), Distance from Optic Disk 600 μm, Mean (compound 9 (pre), 1 mg/mL eye drop, right eye, 600 μm from optic disk, mean per animal): 35.066 μm and 29.743 μm and 31.250 μm and 27.792 μm and 24.846 μm and 34.161 μm and 31.483 μm and 26.353 μm and 37.223 μm and 34.583 μm
Thickness of IPL (μm), Distance from Optic Disk 600 μm, Mean (compound 9 (pre), 1 mg/mL eye drop, right eye, 600 μm from optic disk, mean per animal, listed as compond 9): 36.455 μm and 38.717 μm and 43.674 μm and 35.955 μm and 34.827 μm and 38.882 μm and 43.293 μm and 35.599 μm and 45.392 μm and 35.755 μm
Thickness of INL (μm), Distance from Optic Disk 900 μm (compound 9 (pre), 1 mg/mL eye drop, right eye, 900 μm from optic disk, individual measurements per animal): 34.804 μm and 34.579 μm and 36.245 μm and 30.909 μm and 31.452 μm and 30.862 μm and 27.037 μm and 29.926 μm (2×) and 22.638 μm and 25.416 μm and 27.482 μm and 24.116 μm and 23.512 μm and 24.261 μm and 34.939 μm and 35.346 μm and 31.197 μm and 28.785 μm and 32.162 μm and 30.368 μm and 28.858 μm and 27.378 μm and 29.877 μm and 36.469 μm and 34.623 μm and 36.346 μm and 31.402 μm and 31.035 μm and 29.653 μm
Thickness of IPL (μm), Distance from Optic Disk 900 μm (compound 9 (pre), 1 mg/mL eye drop, right eye, 900 μm from optic disk, individual measurements per animal, listed as compond 9): 36.789 μm and 36.607 μm and 39.836 μm and 44.120 μm and 43.136 μm and 43.354 μm and 44.421 μm and 42.075 μm and 41.663 μm and 37.132 μm and 35.896 μm and 35.907 μm and 36.540 μm and 39.019 μm and 40.323 μm and 10.804 μm and 39.318 μm and 42.252 μm and 44.289 μm and 46.476 μm and 47.334 μm and 41.468 μm and 39.312 μm and 40.445 μm and 49.477 μm and 48.242 μm and 50.923 μm and 38.230 μm and 37.912 μm and 42.098 μm
Thickness of INL (μm), Distance from Optic Disk 900 μm, Mean (compound 9 (pre), 1 mg/mL eye drop, right eye, 900 μm from optic disk, mean per animal): 35.209 μm and 31.074 μm and 28.963 μm and 25.179 μm and 23.963 μm and 33.827 μm and 30.438 μm and 28.704 μm and 35.813 μm and 30.697 μm
Thickness of IPL (μm), Distance from Optic Disk 900 μm, Mean (compound 9 (pre), 1 mg/mL eye drop, right eye, 900 μm from optic disk, mean per animal, listed as compond 9): 37.744 μm and 43.537 μm and 42.720 μm and 36.312 μm and 38.627 μm and 40.791 μm and 46.033 μm and 40.408 μm and 49.547 μm and 39.413 μm
